Test results taken from US20230382934A1, “HIGH ENTROPY OXIDES AND METHODS OF SYNTHESIS AND USE THEREOF” (Auburn University, priority 2022, published 2023).

Key:
[1] = Catalase activity (degradation of H2O2, absorbance at 240 nm); assay type: biochemical; conditions: Mn(II) complex, 100 nM, 10 mM H2O2, 100 mM phosphate pH 7.0
Method: (§1) FIG. 31 depicts representative kinetic traces for the reaction between 100 nM 1 and 10 mM H2O2 in 100 mM phosphate solution buffered to pH 7.0. The absorbance at 240 nm was monitored over time. Activity values were calculated using the UV-1601PC Kinetics program and converted to an initial rate (vo/[1]T) using the following equation: vo/[1]T=(activity)/[60 s×0.01 μM×0.0000394 μM^−1 cm^−1×1.0 cm].
as §1, with “FIG. 66” for “FIG. 31”, “in 200” for “in 100”, “vo/[1]T=(activity)/[60 s×0.1” for “vo/[1]T=(activity)/[60 s×0.01”, “cm^−1×1.0 cm]” for “cm^−1×1.0 cm].”
FIG. 67, comprising FIG. 67A and FIG. 67B, depicts a Michaelis-Menten fit of the activity of 1. FIG. 67A depicts activity of 1 with increasing concentrations of H2O2. All reactions were performed in 200 mM phosphate buffered to pH 7.0 at 25° C. with an initial 100 nM concentration of 1. […]
In order to assess the ability of the Mn(II) complex to catalyze the degradation of H2O2, we reacted 100 nM 1 with 10 mM H2O2 in 100 mM phosphate solution buffered to pH 7.0 and monitored the absorbance at 240 nm over time. […] The consumption of H2O2 was evaluated using a UV-1601 Shimadzu spectrophotometer.

[2] = T1-weighted relaxivity response to H2O2, 3 T clinical MRI scanner; conditions: Example 1, Mn(II) complex with H4qp4
Method: The relaxivities of complex 1 before and during its reaction with H2O2 were assessed using a 3 T MRI scanner (FIG. 27D). T1 values were measured for aqueous solutions containing 0-1.0 mM 1 and 50 mM HEPES buffered to pH 7.00. For each concentration of 1, an oxidized sample was also prepared by adding 10 mM H2O2; the large excess of oxidant was used to ensure as full a turn-on as possible at the timepoints and to facilitate comparisons to manganese-containing MRI contrast agents that were previously prepared and characterized. The T1 values for the H2O2-containing solutions were measured 1 h and 2 h after the reagents were initially mixed. Full series of data were collected for two independently prepared batches of 1 in order to confirm that the results were replicable.
The MRI properties of 1 were assessed using methods that were previously employed in studies of manganese-containing MRI contrast agents. The relaxivity of 1 was measured before and after its reaction with excess H2O2 using a 3 T MRI scanner (FIG. 51). The r1 for the pre-activated complex was calculated from the T1 values of aqueous solutions containing 50 mM HEPES buffered to pH 7.00 and 0-1 mM 1. T1 measurements were also acquired for oxidized samples that contained 10 mM H2O2 in addition to the aforementioned reagents. The T1 values were measured 30 min and 60 min after the solution samples were initially prepared. […]

- initial rate vo/[1]T [1]: 6600 s⁻¹
Substance: (1,8-Bis(2,5-dihydroxybenzyl)-1,4,8,11tetraazacyclotetradecane)manganese(II) triflate [Complex 1]
- increase in r1 upon oxidation by H2O2 [2]: 130%
